From US7932270B2 (Cytokinetics, Inc., priority 2006, dated 2011)
pIC50: −log10 of the molar value.

molecular target: T1, chicken gizzard smooth muscle myosin subfragment-1 chemically crosslinked to cardiac or skeletal actin (Gallus gallus, UniProt P10587); experiment: Smooth muscle myosin ATPase dose response assay (pyruvate kinase/horseradish peroxidase/pyruvate oxidase-coupled, amplex red fluorescence); format: biochemical; conditions: read-out: IC50 Arithmetic Mean
T1 construct: chicken gizzard smooth muscle myosin subfragment-1; from tissue; host or cells: chicken gizzard
Procedure, shortened: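 ATPase monitored by amplex red fluorescence (ex 480/em 615 nm) via pyruvate oxidase/HRP coupling, pH 7.00, ATP 0.15 mM. Enzyme: smooth muscle S1-actin crosslinked conjugate, amount set empirically by titration. Dose-response fitted with 4-parameter Hill equation for IC50.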

T1 sequence (P02607 2-151): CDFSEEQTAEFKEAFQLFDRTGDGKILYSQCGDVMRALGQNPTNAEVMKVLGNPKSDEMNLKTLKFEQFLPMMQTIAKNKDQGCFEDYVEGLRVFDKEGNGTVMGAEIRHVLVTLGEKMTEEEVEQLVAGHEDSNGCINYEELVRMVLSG
T1 sequence (P10587 84-789): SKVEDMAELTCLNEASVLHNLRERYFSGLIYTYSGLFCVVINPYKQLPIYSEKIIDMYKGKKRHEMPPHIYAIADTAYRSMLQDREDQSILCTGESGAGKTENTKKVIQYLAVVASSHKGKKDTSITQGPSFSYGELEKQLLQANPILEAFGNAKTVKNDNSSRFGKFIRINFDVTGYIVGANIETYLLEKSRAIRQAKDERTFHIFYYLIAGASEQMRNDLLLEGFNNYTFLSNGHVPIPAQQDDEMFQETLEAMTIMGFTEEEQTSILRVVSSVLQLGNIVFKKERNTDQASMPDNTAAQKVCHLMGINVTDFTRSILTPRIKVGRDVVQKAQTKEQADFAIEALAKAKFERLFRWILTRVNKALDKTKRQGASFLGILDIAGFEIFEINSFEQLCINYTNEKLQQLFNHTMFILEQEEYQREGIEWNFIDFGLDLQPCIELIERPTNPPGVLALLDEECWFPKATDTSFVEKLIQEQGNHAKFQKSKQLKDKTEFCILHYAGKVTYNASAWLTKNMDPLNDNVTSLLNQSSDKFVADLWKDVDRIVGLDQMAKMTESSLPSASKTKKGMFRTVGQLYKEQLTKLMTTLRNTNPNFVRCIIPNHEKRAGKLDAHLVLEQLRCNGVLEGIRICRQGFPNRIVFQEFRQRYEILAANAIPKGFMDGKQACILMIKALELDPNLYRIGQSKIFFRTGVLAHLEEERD

`NCc1ccc(CNC(=O)c2ccc(-c3ccccc3)nc2NCCc2cccc(F)c2)cn1` [N-{[6-(aminomethyl)(3-pyridyl)]methyl}(2-{[2-(3-fluorophenyl)ethyl]amino}-6-phenyl(3-pyridyl))carboxamide] was tested. Which pIC50 did it give?
Its pIC50 is 6.38.

With `CN(C)c1ccc(CNC(=O)c2ccc(-c3ccccc3C#N)nc2NCCc2cccc(F)c2)cn1` [N-{[6-(dimethylamino)(3-pyridyl)]methyl}(6-(2-cyanophenyl)-2-{[2-(3-fluorophenyl)ethyl]amino}(3-pyridyl))carboxamide] as the molecule, how does the pIC50 read?
The pIC50 was 4.52.

`N#Cc1ccccc1-c1ccc(C(=O)NC[C@H]2CCN2C(=O)C(O)CO)c(NCCc2cccc(F)c2)n1` (stereo partly drawn) [N-{[(2R)-1-(2,3-dihydroxypropanoyl)azetidin-2-yl]methyl}(6-(2-cyanophenyl)-2-{[2-(3-fluorophenyl)ethyl]amino}(3-pyridyl))carboxamide] was tested. Which pIC50 did it give?
Its pIC50 is 7.29.

`Cn1cc(-c2nc(NCCc3cccc(F)c3)c(C(=O)NC[C@H]3CCCN3C(=O)C(O)CO)cc2F)cn1` (stereo partly drawn) [N-{[(2R)-1-(2,3-dihydroxypropanoyl)pyrrolidin-2-yl]methyl}(5-fluoro-2-{[2-(3-fluorophenyl)ethyl]amino}-6-(1-methylpyrazol-4-yl)(3-pyridyl))carboxamide] was tested. Which pIC50 did it give?
The pIC50 was 6.84.

With `N#Cc1ccccc1-c1nc(NCCc2cccc(F)c2)c(C(=O)NC[C@H]2CCCN2C(=O)C(O)CO)cc1F` (stereo partly drawn) [N-{[(2R)-1-(2,3-dihydroxypropanoyl)pyrrolidin-2-yl]methyl}(6-(2-cyanophenyl)-5-fluoro-2-{[2-(3-fluorophenyl)ethyl]amino}(3-pyridyl))carboxamide] as the molecule, how does the pIC50 read?
The pIC50 was 6.96.

`N#Cc1ccccc1-c1ccc(C(=O)NC[C@H]2CCCCN2C(=O)CN)c(NCCc2cccc(F)c2)n1` [N-{[(2R)-1-(2-aminoacetyl)(2-piperidyl)]methyl}(6-(2-cyanophenyl)-2-{[2-(3-fluorophenyl)ethyl]amino}(3-pyridyl))carboxamide] was tested. Which pIC50 did it give?
Its pIC50 is 7.04.

`NCC(=O)N1CC[C@@H]1CNC(=O)c1ccc(-c2cn[nH]c2)nc1NCCc1cccc(F)c1` [N-{[(2R)-1-(2-aminoacetyl)azetidin-2-yl]methyl}(2-{[2-(3-fluorophenyl)ethyl]amino}-6-pyrazol-4-yl(3-pyridyl))carboxamide] was tested. Which pIC50 did it give?
Its pIC50 is 6.25.

With `Cn1cc(-c2nc(NCCc3cccc(F)c3)c(C(=O)NC[C@H]3CCN3C(=O)CN)cc2F)cn1` [N-{[(2R)-1-(2-aminoacetyl)azetidin-2-yl]methyl}(5-fluoro-2-{[2-(3-fluorophenyl)ethyl]amino}-6-(1-methylpyrazol-4-yl)(3-pyridyl))carboxamide] as the molecule, how does the pIC50 read?
Its pIC50 is 7.30.

`N#Cc1ccccc1-c1ccc(C(=O)NC[C@H]2CCN2C(=O)CN)c(NCCc2cccc(F)c2)n1` [N-{[(2R)-1-(2-aminoacetyl)azetidin-2-yl]methyl}(6-(2-cyanophenyl)-2-{[2-(3-fluorophenyl)ethyl]amino}(3-pyridyl))carboxamide] was tested. Which pIC50 did it give?
The pIC50 was 7.36.

How did the pIC50 turn out when `N#Cc1ccccc1-c1ccc(C(=O)NC[C@H]2CNCCN2C(=O)CN)c(NCCc2cccc(F)c2)n1` [N-{[(2R)-1-(2-aminoacetyl)piperazin-2-yl]methyl}(6-(2-cyanophenyl)-2-{[2-(3-fluorophenyl)ethyl]amino}(3-pyridyl))carboxamide] was run?
The pIC50 was 5.56.

With `Cn1cc(-c2ccc(C(=O)NC[C@H]3CCCN3C(=O)CN)c(NCCc3cccc(F)c3)n2)cn1` [N-{[(2R)-1-(2-aminoacetyl)pyrrolidin-2-yl]methyl}(2-{[2-(3-fluorophenyl)ethyl]amino}-6-(1-methylpyrazol-4-yl)(3-pyridyl))carboxamide] as the molecule, how does the pIC50 read?
Its pIC50 is 6.24.

With `Cn1cc(-c2nc(NCCc3cccc(F)c3)c(C(=O)NC[C@H]3CCCN3C(=O)CN)cc2F)cn1` [N-{[(2R)-1-(2-aminoacetyl)pyrrolidin-2-yl]methyl}(5-fluoro-2-{[2-(3-fluorophenyl)ethyl]amino}-6-(1-methylpyrazol-4-yl)(3-pyridyl))carboxamide] as the molecule, how does the pIC50 read?
Its pIC50 is 7.18.

`NCC(=O)N1CCC[C@@H]1CNC(=O)c1cc(F)c(-c2cc[nH]n2)nc1NCCc1cccc(F)c1` [N-{[(2R)-1-(2-aminoacetyl)pyrrolidin-2-yl]methyl}(5-fluoro-2-{[2-(3-fluorophenyl)ethyl]amino}-6-pyrazol-3-yl(3-pyridyl))carboxamide] was tested. Which pIC50 did it give?
Its pIC50 is 6.97.

`NCC(=O)N1CCC[C@@H]1CNC(=O)c1cc(F)c(-c2cn[nH]c2)nc1NCCc1cccc(F)c1` [N-{[(2R)-1-(2-aminoacetyl)pyrrolidin-2-yl]methyl}(5-fluoro-2-{[2-(3-fluorophenyl)ethyl]amino}-6-pyrazol-4-yl(3-pyridyl))carboxamide] was tested. Which pIC50 did it give?
The pIC50 was 7.21.

How did the pIC50 turn out when `N#Cc1ccccc1-c1ccc(C(=O)NC[C@H]2CCCN2C(=O)CN)c(NCCc2cccc(F)c2)n1` [N-{[(2R)-1-(2-aminoacetyl)pyrrolidin-2-yl]methyl}(6-(2-cyanophenyl)-2-{[2-(3-fluorophenyl)ethyl]amino}(3-pyridyl))carboxamide] was run?
Its pIC50 is 7.60.

`N#Cc1ccccc1-c1nc(NCCc2cccc(F)c2)c(C(=O)NC[C@H]2CCCN2C(=O)CN)cc1F` [N-{[(2R)-1-(2-aminoacetyl)pyrrolidin-2-yl]methyl}(6-(2-cyanophenyl)-5-fluoro-2-{[2-(3-fluorophenyl)ethyl]amino}(3-pyridyl))carboxamide] was tested. Which pIC50 did it give?
The pIC50 was 7.40.

How did the pIC50 turn out when `N#Cc1ccccc1-c1ccc(C(=O)NC[C@H]2CCC(=O)N2CCN)c(NCCc2cccc(F)c2)n1` [N-{[(2R)-1-(2-aminoethyl)-5-oxopyrrolidin-2-yl]methyl}(6-(2-cyanophenyl)-2-{[2-(3-fluorophenyl)ethyl]amino}(3-pyridyl))carboxamide] was run?
Its pIC50 is 6.96.

How did the pIC50 turn out when `N#Cc1ccccc1-c1ccc(C(=O)NC[C@H]2CCCN2CCN)c(NCCc2cccc(F)c2)n1` [N-{[(2R)-1-(2-aminoethyl)pyrrolidin-2-yl]methyl}(6-(2-cyanophenyl)-2-{[2-(3-fluorophenyl)ethyl]amino}(3-pyridyl))carboxamide] was run?
The pIC50 was 6.15.

`Cn1cc(-c2nc(NCCc3cccc(F)c3)c(C(=O)NC[C@H]3CCN3C(=O)C(C)(C)O)cc2F)cn1` [N-{[(2R)-1-(2-hydroxy-2-methylpropanoyl)azetidin-2-yl]methyl}(5-fluoro-2-{[2-(3-fluorophenyl)ethyl]amino}-6-(1-methylpyrazol-4-yl)(3-pyridyl))carboxamide] was tested. Which pIC50 did it give?
The pIC50 was 6.85.

How did the pIC50 turn out when `O=C(NC[C@H]1CCN1C(=O)CO)c1ccc(-c2ccc(CO)s2)nc1NCCc1cccc(F)c1` [N-{[(2R)-1-(2-hydroxyacetyl)azetidin-2-yl]methyl}(2-{[2-(3-fluorophenyl)ethyl]amino}-6-[5-(hydroxymethyl)(2-thienyl)](3-pyridyl))carboxamide] was run?
Its pIC50 is 5.59.

With `O=C(NC[C@H]1CCN1C(=O)CO)c1ccc(-c2cn[nH]c2)nc1NCCc1cccc(F)c1` [N-{[(2R)-1-(2-hydroxyacetyl)azetidin-2-yl]methyl}(2-{[2-(3-fluorophenyl)ethyl]amino}-6-pyrazol-4-yl(3-pyridyl))carboxamide] as the molecule, how does the pIC50 read?
Its pIC50 is 6.25.

How did the pIC50 turn out when `Cn1cc(-c2nc(NCCc3cccc(F)c3)c(C(=O)NC[C@H]3CCN3C(=O)CO)cc2F)cn1` [N-{[(2R)-1-(2-hydroxyacetyl)azetidin-2-yl]methyl}(5-fluoro-2-{[2-(3-fluorophenyl)ethyl]amino}-6-(1-methylpyrazol-4-yl)(3-pyridyl))carboxamide] was run?
The pIC50 was 7.33.

With `O=C(NC[C@H]1CCN1C(=O)CO)c1cc(F)c(-c2cn[nH]c2)nc1NCCc1cccc(F)c1` [N-{[(2R)-1-(2-hydroxyacetyl)azetidin-2-yl]methyl}(5-fluoro-2-{[2-(3-fluorophenyl)ethyl]amino}-6-pyrazol-4-yl(3-pyridyl))carboxamide] as the molecule, how does the pIC50 read?
The pIC50 was 7.34.

`N#Cc1ccccc1-c1ccc(C(=O)NC[C@H]2CCN2C(=O)CO)c(NCCc2cccc(F)c2)n1` [N-{[(2R)-1-(2-hydroxyacetyl)azetidin-2-yl]methyl}(6-(2-cyanophenyl)-2-{[2-(3-fluorophenyl)ethyl]amino}(3-pyridyl))carboxamide] was tested. Which pIC50 did it give?
Its pIC50 is 7.40.

`Cn1cc(-c2ccc(C(=O)NC[C@H]3CCCN3C(=O)CO)c(NCCc3cccc(F)c3)n2)cn1` [N-{[(2R)-1-(2-hydroxyacetyl)pyrrolidin-2-yl]methyl}(2-{[2-(3-fluorophenyl)ethyl]amino}-6-(1-methylpyrazol-4-yl)(3-pyridyl))carboxamide] was tested. Which pIC50 did it give?
The pIC50 was 5.75.

How did the pIC50 turn out when `O=C(NC[C@H]1CCCN1C(=O)CO)c1ccc(-c2cn[nH]c2)nc1NCCc1cccc(F)c1` [N-{[(2R)-1-(2-hydroxyacetyl)pyrrolidin-2-yl]methyl}(2-{[2-(3-fluorophenyl)ethyl]amino}-6-pyrazol-4-yl(3-pyridyl))carboxamide] was run?
The pIC50 was 5.93.

With `N#Cc1ccccc1-c1ccc(C(=O)NC[C@H]2CCCN2C(=O)CO)c(NCCc2cccc(F)c2)n1` [N-{[(2R)-1-(2-hydroxyacetyl)pyrrolidin-2-yl]methyl}(6-(2-cyanophenyl)-2-{[2-(3-fluorophenyl)ethyl]amino}(3-pyridyl))carboxamide] as the molecule, how does the pIC50 read?
Its pIC50 is 6.94.

With `N#Cc1ccccc1-c1ccc(C(=O)NC[C@H]2CCCCN2C(=O)CCN)c(NCCc2cccc(F)c2)n1` [N-{[(2R)-1-(3-aminopropanoyl)(2-piperidyl)]methyl}(6-(2-cyanophenyl)-2-{[2-(3-fluorophenyl)ethyl]amino}(3-pyridyl))carboxamide] as the molecule, how does the pIC50 read?
Its pIC50 is 6.81.

`N#Cc1ccccc1-c1ccc(C(=O)NC[C@H]2CCN2C(=O)CCN)c(NCCc2cccc(F)c2)n1` [N-{[(2R)-1-(3-aminopropanoyl)azetidin-2-yl]methyl}(6-(2-cyanophenyl)-2-{[2-(3-fluorophenyl)ethyl]amino}(3-pyridyl))carboxamide] was tested. Which pIC50 did it give?
The pIC50 was 7.35.

How did the pIC50 turn out when `N#Cc1ccccc1-c1ccc(C(=O)NC[C@H]2CNCCN2C(=O)CCN)c(NCCc2cccc(F)c2)n1` [N-{[(2R)-1-(3-aminopropanoyl)piperazin-2-yl]methyl}(6-(2-cyanophenyl)-2-{[2-(3-fluorophenyl)ethyl]amino}(3-pyridyl))carboxamide] was run?
The pIC50 was 5.31.

With `Cn1cc(-c2ccc(C(=O)NC[C@H]3CCCN3C(=O)CCN)c(NCCc3cccc(F)c3)n2)cn1` [N-{[(2R)-1-(3-aminopropanoyl)pyrrolidin-2-yl]methyl}(2-{[2-(3-fluorophenyl)ethyl]amino}-6-(1-methylpyrazol-4-yl)(3-pyridyl))carboxamide] as the molecule, how does the pIC50 read?
The pIC50 was 6.23.
